For series [1], the target named is DDR1 (Homo sapiens, UniProt Q08345). In words: Kinase panel biochemical assay. The conditions noted are these: single concentration of 1 μM; panel of 369 kinases; read-out: kinase activity inhibited (%), DDR1. As for the experimental part:
(§1) In order to measure the inhibitory activity (%) against protein kinases of the compounds of the present invention, biochemical assays were performed on a full kinase panel composed of 369 kinases.

Series [2] has as its target FGFR2 (Homo sapiens, UniProt P21802). Kind of series: Kinase panel biochemical assay. To be noted: single concentration of 1 μM; panel of 369 kinases; read-out: kinase activity inhibited (%), FGFR2. As for the experimental part:
as §1

In series [3] the target is MAK (Homo sapiens, UniProt P20794). In words: Kinase panel biochemical assay. To be noted: single concentration of 1 μM; panel of 369 kinases; read-out: kinase activity inhibited (%), MAK. As for the experimental part: as §1
Series [4] addresses PCTAIRE2 (Homo sapiens, UniProt Q00537). Kind of series: Kinase panel biochemical assay. The conditions noted are these: single concentration of 1 μM; panel of 369 kinases; read-out: kinase activity inhibited (%), PCTAIRE2. As for the experimental part:
as §1

The target of series [5] is PHKg1 (Homo sapiens, UniProt Q16816). Kind of series: Kinase panel biochemical assay. The conditions noted are these: single concentration of 1 μM; panel of 369 kinases; read-out: kinase activity inhibited (%), PHKg1. As for the experimental part: as §1
Series [6] has as its target ROS (Homo sapiens, UniProt P08922). Kind of series: Kinase panel biochemical assay. To be noted: single concentration of 1 μM; panel of 369 kinases; read-out: kinase activity inhibited (%), ROS. As for the experimental part:
as §1

Series [7] addresses TAO2 (Homo sapiens, UniProt Q9UL54). In words: Kinase panel biochemical assay. The conditions noted are these: single concentration of 1 μM; panel of 369 kinases; read-out: kinase activity inhibited (%), TAO2. As for the experimental part: as §1
Series [8] has as its target FGFR2 mutant (N549H) (Homo sapiens, UniProt P21802, N549H). In words: Pan-FGFR mutant enzymatic activity. In kind it is biochemical. The conditions noted are these: mutant enzyme. As for the experimental part:
(§2) The inhibitory activity against pan-FGFR mutants of the compounds synthesized in Examples 1, 8, 13, 22, and 24 was measured, the inhibitory activity on each of enzymatic activity and cellular activity was evaluated, and the results are shown in Tables 3 and 4 below.

Series [9] concerns the target FGFR2 mutant (V564F) (Homo sapiens, UniProt P21802, V564F). Kind of series: Pan-FGFR mutant enzymatic activity. To be noted: mutant enzyme. In kind it is biochemical. As for the experimental part:
as §2

The target in series [10] is FGFR3 mutant (K650E) (Homo sapiens, UniProt P22607, K650E). In words: Pan-FGFR mutant enzymatic activity. In kind it is biochemical. To be noted: mutant enzyme. As for the experimental part: as §2
Series [11] has as its target FGFR3 mutant (K650M) (Homo sapiens, UniProt P22607, K650M). Kind of series: Pan-FGFR mutant enzymatic activity. The class given is biochemical. The conditions noted are these: mutant enzyme. As for the experimental part:
as §2

Series [12] addresses FGFR3 mutant (V555M) (Homo sapiens, UniProt P22607, V555M). In words: Pan-FGFR mutant enzymatic activity. In kind it is biochemical. To be noted: mutant enzyme. As for the experimental part:
as §2

Series [13] deals with AN3-CA. In words: Pan-FGFR mutant cellular activity. In kind it is cell-based. The conditions noted are these: Homo sapiens, mutant cell, Table 4, read-out: GI50, AN3-CA (breast cancer cell line). As for the experimental part: as §2
The subject of series [14] is J82 (bladder cancer cell line). In words: Pan-FGFR mutant cellular activity. In kind it is cell-based. To be noted: Table 4. As for the experimental part:
as §2

The test system of series [15] is KMS-11 (myeloma cell line). Kind of series: Pan-FGFR mutant cellular activity. The class given is cell-based. To be noted: Homo sapiens, Table 4. As for the experimental part:
as §2

The test system of series [16] is UMUC3 (bladder cancer cell line). In words: Pan-FGFR mutant cellular activity. The class given is cell-based. To be noted: Homo sapiens, Table 4. As for the experimental part: as §2
Series [17] concerns the target T1, CYP1A2 (Homo sapiens, UniProt P05177).
T1 sequence (P05177 1-516): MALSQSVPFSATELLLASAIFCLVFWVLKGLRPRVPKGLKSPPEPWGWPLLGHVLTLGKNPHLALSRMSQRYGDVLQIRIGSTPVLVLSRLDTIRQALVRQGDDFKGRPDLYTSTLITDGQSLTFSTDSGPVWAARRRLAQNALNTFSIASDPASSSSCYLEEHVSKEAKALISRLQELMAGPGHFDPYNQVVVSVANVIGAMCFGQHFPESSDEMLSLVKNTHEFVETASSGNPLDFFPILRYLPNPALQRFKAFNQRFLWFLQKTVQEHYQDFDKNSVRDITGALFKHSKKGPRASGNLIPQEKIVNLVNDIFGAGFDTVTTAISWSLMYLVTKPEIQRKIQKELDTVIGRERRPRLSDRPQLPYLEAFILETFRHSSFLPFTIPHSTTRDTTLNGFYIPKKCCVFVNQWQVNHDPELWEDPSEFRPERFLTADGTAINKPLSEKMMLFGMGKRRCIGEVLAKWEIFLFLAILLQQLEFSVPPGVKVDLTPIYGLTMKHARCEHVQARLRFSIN
Kind of series: Inhibitory activity against CYP metabolic enzyme. The class given is in vitro ADME. As for the experimental part: (§3) In order to determine whether or not there is a possibility that the compounds synthesized in Examples 1, 22, and 24 of the present invention can cause side effects of drug interaction, the rate (%) of inhibition against 5 major metabolic enzymes (CYP1A2, CYP2C9, CYP2C19, CYP2D6, and CYP3A4) among CYPs (cytochrome P450), which are enzymes involved in oxidative metabolism of drugs, was measured. […] That is, it can be seen that the compound of the present invention has a low possibility of causing side effects of drug interaction.

Series [18] concerns the target CYP2C19 (Homo sapiens, UniProt P33261). Kind of series: Inhibitory activity against CYP metabolic enzyme. In kind it is in vitro ADME. As for the experimental part:
as §3

For series [19], the target named is CYP2C9 (Homo sapiens, UniProt P11712). In words: Inhibitory activity against CYP metabolic enzyme. The class given is in vitro ADME. As for the experimental part:
as §3

Series [20] has as its target CYP2D6 (Homo sapiens, UniProt P10635). In words: Inhibitory activity against CYP metabolic enzyme. In kind it is in vitro ADME. As for the experimental part: as §3
In series [21] the target is CYP3A4 (Homo sapiens, UniProt P08684). Kind of series: Inhibitory activity against CYP metabolic enzyme. The class given is in vitro ADME. As for the experimental part:
as §3

The subject of series [22] is UMUC3, bladder cancer cell line overexpressing FGFR1 (xenograft). In words: In-vivo efficacy in animal model transplanted with bladder cancer cell line. The conditions noted are these: UMUC3 xenograft in BALB/C nude mice, oral 20 mpk once a day, compared to control drug BGJ398. From the text: Specifically, 6-7 week old BALB/C nude mice xenografted with UMUC3, which was a bladder cancer cell line overexpressing FGFR1, were used as an animal model. BGJ398 (manufactured by Novartis), a known FGFR inhibitor, was used as a control drug. A mixed solution (pH=4) of 5% N-methylpyrrolidinone (NMP), 6% Solutol, 20% polyethylene glycol (PEG400), and 69′% distilled water was used as a vehicle. At this time, the drug was orally administered at a concentration of 20 mpk (mg/kg) once a day.

Consider one molecule from patent publication US12466812B2, “Pyridinyltriazine derivative having protein kinase inhibitory activity, and pharmaceutical composition for preventing, ameliorating, or treating cancer comprising same” (KOREA INSTITUTE OF SCIENCE AND TECHNOLOGY, priority 2019, dated 2025).

The IC50 is the concentration at which inhibition is half-maximal. A high value points to weaker potency in that assay. A word on the GI50: it is the concentration that inhibits growth by half.

Sequence of CYP2D6 (P10635 whole entry): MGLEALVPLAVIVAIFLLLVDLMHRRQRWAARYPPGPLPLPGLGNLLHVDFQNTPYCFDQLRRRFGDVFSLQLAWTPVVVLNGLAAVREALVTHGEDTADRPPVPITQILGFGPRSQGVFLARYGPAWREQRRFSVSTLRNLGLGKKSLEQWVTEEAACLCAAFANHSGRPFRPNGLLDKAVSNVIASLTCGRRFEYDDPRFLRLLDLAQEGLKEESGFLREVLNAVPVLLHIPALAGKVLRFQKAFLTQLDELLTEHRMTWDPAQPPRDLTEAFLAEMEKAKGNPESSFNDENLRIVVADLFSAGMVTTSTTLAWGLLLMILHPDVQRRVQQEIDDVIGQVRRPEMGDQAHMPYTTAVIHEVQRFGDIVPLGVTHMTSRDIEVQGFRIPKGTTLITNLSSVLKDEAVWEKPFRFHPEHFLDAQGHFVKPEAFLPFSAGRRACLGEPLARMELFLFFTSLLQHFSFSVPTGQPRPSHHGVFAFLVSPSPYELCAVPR
Sequence of FGFR2 mutant (V564F) (P21802 22-821 V564F): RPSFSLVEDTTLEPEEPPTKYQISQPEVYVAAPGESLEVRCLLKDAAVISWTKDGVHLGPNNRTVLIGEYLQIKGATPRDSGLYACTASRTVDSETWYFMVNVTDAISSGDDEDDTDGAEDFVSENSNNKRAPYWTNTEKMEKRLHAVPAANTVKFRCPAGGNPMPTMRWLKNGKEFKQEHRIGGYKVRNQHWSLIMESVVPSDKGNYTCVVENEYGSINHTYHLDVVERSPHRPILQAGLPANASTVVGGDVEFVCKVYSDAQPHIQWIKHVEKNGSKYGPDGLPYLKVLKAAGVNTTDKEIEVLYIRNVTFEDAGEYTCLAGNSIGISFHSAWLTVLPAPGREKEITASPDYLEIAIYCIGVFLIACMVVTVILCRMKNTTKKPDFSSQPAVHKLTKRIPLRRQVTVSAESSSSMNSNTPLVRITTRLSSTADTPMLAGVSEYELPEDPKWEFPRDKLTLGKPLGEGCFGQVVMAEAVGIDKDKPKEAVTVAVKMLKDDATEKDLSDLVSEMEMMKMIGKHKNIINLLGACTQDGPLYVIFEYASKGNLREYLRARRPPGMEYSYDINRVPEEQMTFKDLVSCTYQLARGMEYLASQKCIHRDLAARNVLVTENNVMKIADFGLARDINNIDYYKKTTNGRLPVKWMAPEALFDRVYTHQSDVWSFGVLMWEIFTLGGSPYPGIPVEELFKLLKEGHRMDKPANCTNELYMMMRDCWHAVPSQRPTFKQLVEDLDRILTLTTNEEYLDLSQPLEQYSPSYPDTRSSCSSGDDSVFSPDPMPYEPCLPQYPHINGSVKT
Sequence of ROS (P08922 28-2347): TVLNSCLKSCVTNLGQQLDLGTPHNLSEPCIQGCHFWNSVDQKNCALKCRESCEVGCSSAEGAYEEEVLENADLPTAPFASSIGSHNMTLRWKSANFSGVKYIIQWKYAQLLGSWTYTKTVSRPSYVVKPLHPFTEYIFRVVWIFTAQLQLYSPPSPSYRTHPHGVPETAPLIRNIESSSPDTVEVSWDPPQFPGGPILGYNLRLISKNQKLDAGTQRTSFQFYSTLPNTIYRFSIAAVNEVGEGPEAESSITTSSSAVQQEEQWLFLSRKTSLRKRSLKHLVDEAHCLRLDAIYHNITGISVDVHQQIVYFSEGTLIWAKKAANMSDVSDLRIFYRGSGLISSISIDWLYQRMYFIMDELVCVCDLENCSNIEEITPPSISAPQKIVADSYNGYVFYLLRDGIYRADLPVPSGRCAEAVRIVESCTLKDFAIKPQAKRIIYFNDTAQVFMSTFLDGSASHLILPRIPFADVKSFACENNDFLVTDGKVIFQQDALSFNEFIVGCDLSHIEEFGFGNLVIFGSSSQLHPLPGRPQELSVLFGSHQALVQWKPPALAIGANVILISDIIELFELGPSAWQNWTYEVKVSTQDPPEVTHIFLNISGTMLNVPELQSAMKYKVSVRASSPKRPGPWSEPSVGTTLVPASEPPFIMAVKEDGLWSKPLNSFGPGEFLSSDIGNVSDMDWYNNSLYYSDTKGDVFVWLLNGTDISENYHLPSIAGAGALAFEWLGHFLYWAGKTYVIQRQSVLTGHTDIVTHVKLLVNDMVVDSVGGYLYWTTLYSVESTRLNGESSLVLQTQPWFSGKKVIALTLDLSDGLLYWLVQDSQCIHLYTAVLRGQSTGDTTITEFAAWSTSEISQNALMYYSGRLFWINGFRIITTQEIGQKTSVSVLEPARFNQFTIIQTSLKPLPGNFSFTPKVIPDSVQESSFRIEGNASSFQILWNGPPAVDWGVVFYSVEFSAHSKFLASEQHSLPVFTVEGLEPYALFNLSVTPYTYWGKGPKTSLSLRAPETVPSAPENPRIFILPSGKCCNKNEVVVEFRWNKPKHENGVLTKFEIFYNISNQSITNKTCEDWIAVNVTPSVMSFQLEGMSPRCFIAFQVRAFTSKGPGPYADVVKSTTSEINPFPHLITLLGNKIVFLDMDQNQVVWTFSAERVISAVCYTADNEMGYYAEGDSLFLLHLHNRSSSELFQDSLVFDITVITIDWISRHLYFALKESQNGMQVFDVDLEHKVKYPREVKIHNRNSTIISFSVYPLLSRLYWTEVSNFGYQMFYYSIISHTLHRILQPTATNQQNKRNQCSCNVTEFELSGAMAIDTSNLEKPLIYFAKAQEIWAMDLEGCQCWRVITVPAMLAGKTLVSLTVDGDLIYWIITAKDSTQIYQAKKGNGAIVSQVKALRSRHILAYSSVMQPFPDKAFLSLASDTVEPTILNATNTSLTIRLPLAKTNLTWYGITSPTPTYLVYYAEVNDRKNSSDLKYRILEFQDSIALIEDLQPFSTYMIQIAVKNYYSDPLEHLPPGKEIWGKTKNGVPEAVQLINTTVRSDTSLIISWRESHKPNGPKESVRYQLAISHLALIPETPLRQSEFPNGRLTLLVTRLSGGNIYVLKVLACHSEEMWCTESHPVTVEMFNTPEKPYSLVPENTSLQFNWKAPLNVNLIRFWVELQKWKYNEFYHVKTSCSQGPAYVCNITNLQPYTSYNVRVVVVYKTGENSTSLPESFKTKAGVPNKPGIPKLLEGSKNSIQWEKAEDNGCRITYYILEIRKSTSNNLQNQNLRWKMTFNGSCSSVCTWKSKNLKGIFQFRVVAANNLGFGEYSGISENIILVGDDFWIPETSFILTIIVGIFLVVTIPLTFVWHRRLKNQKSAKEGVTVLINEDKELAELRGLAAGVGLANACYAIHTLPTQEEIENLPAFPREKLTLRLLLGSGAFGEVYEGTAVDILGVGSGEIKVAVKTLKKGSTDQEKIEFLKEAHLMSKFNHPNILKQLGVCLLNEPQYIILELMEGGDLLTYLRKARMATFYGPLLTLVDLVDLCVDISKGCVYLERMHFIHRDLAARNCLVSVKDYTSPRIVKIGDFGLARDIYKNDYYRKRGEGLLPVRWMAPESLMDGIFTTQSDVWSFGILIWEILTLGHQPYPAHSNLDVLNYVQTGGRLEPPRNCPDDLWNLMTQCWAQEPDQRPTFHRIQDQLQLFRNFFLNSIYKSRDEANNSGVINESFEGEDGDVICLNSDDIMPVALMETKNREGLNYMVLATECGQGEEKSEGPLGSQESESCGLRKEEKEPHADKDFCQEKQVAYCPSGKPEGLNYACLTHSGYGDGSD
Sequence of FGFR3 mutant (K650E) (P22607 23-806 K650E): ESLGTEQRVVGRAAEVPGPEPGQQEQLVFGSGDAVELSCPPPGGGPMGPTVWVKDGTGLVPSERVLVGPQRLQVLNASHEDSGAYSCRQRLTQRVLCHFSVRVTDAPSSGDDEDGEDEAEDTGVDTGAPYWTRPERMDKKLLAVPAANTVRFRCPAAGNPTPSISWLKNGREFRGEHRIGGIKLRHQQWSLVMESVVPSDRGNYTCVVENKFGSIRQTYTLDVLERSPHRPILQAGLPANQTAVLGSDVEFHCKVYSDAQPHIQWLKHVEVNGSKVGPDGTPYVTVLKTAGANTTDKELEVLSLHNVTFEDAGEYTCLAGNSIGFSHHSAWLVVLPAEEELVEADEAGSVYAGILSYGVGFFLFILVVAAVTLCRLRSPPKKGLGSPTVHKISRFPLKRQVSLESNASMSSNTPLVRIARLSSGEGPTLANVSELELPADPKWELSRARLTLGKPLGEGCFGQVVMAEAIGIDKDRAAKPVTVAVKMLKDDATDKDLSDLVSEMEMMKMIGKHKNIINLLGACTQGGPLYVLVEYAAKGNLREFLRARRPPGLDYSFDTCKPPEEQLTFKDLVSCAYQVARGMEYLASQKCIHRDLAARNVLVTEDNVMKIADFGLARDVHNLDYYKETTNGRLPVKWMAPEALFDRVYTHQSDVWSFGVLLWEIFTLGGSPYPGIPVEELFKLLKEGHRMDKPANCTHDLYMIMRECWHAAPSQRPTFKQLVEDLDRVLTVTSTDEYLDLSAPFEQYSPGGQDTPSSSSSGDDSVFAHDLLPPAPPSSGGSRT
Sequence of CYP3A4 (P08684 whole entry): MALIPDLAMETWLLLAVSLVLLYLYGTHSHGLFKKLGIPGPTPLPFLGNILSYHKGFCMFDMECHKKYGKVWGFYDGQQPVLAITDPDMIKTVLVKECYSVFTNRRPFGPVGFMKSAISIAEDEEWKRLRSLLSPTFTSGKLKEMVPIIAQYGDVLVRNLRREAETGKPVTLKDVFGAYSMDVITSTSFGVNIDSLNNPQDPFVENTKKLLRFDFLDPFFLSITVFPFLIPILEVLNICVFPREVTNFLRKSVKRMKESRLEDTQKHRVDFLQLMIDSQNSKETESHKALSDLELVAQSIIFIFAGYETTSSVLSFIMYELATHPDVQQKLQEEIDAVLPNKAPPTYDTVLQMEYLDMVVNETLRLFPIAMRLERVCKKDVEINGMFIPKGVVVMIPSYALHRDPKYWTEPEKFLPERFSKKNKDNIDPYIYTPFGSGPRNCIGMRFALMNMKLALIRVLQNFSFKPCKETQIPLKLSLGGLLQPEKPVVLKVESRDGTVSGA
Sequence of FGFR3 mutant (V555M) (P22607 23-806 V555M): as the sequence (P22607 23-806 K650E) above, with V533M, E628K counted along it
Sequence of FGFR3 mutant (K650M) (P22607 23-806 K650M): as the sequence (P22607 23-806 K650E) above, with E628M counted along it
Sequence of FGFR2 (P21802 22-821): as the sequence (P21802 22-821 V564F) above, with F543V counted along it
Sequence of FGFR2 mutant (N549H) (P21802 22-821 N549H): as the sequence (P21802 22-821 V564F) above, with N528H, F543V counted along it

Turning to `CCN1CCN(c2ccc(Nc3ncnc(-c4cccnc4Nc4c(Cl)c(OC)cc(OC)c4Cl)n3)cc2)CC1` [Example 1], the inhibition at 1 µM in series [1], in series [2], in [3], in [4], in series [5] and in series [6] was at least 90% in each case. The inhibition at 1 µM in series [7] was at least 90%. Also, the IC50 was under 100 nM in series [8]; 100 to 1000 nM in series [9]; under 100 nM in [10]; under 100 nM in [11]; 100 to 1000 nM in series [12]. Further, the GI50 in series [13] was under 1000 nM; in [14], 1000 to 10000 nM; in series [15], under 1000 nM; in series [16], 1000 to 10000 nM. Moreover, in series [17], the “rate (%) of inhibition, CYP1A2” value is 71.4%. In addition, the “rate (%) of inhibition, CYP2C19” value in series [18] was 26.7%. Moreover, the “rate (%) of inhibition, CYP2C9” value in series [19] is recorded as 70.2%. Further, the “rate (%) of inhibition, CYP2D6” value in [20] stood at 80.9%. The “rate (%) of inhibition, CYP3A4” value in [21] is 17.0%. In addition, the “tumor volume reduction effect” value in series [22] is on record as “excellent tumor volume reduction effect”.
